From publication PMC6254286, “Quantitative Structure − Antiprotozoal Activity Relationships of Sesquiterpene Lactones ^†” (Molecules, 2009)
Like-named read-outs stand apart in the source and are kept apart here.

Experiments:
[1] = test system: T. cruzi Tulahuen strain C2C4; assay: In vitro activity against T. cruzi in L-6 host cells (beta-galactosidase/CPRG); type: cell-based, Trypanosoma cruzi; conditions: read-out: IC50 T. cruzi (Tcr)
Method: Trypanosoma cruzi. Rat skeletal myoblasts (L-6 cells) were seeded in 96-well microtiter plates at 2,000 cells/well in 100 µL RPMI 1640 medium with 10% FBS (fetal bovine serum) and 2 mM L-glutamine. After 24 hours the medium was removed and replaced by 100 µL per well containing 5,000 trypomastigote forms of T. cruzi Tulahuen strain C2C4 containing the β-galactosidase (Lac Z) gene. Fortyeight hours later the medium was removed from the wells and replaced by […] fresh medium with or without a serial drug dilution. Seven 3-fold dilutions were used covering a range from […]. Each drug was tested in duplicate. After 96 hours of incubation the plates were inspected under an inverted microscope to assure growth of the controls and sterility. Then the substrate CPRG/ Nonidet (50 µL) was added to all wells. A colour reaction developed within 2-6 hours and could be read photometrically at 540 nm.

[2] = test system: Trypanosoma brucei rhodesiense STIB 900; assay: In vitro activity against T. brucei rhodesiense bloodstream forms (Alamar blue); type: cell-based; conditions: for IC50: mean of two independent measurements; for selectivity index (SI) with respect to Tbr: ratio of cytotoxic IC50 (L6) over IC50 against Tbr
Method: (§1) Trypanosoma brucei rhodesiense and cytotoxicity against L6 cells. Minimum Essential Medium with Earle’s salts (50 µL) supplemented with 0.2 mM 2-mercapto-ethanol, 1 mM Na-pyruvate and 15% heat-inactivated horse serum was added to each well of a 96-well microtiter plate. […] Then 10^4 bloodstream forms of Trypanosoma brucei rhodesiense STIB 900 in 50 µL of medium were added to each well and the plate incubated at 37°C under a 5% CO2 atmosphere for 72 hours. […] The plate was then read in a Spectramax Gemini XS microplate fluorometer (Molecular Devices Corporation, Sunnyvale, CA, USA) using an excitation wavelength of 536 nm and emission wavelength of 588 nm. Fluorescence development was measured and expressed as percentage of the control. Data were transferred into the graphic programme Softmax Pro (Molecular Devices) which calculated IC50 values. Cytotoxicity was assessed using a similar protocol and rat skeletal myoblasts (L6 cells). […] All following steps were according to the T. b. rhodesiense protocol.

[3] = test system: rat skeletal myoblasts (L6 cells); assay: Cytotoxicity against L6 cells (Alamar blue)
Method: as §1

[4] = Cytotoxicity against L6 cells (Alamar blue); conditions: rat; for IC50: IC50 Cytotoxicity (L6), L6 rat skeletal myoblasts, 72 h, mean of two independent measurements
Method: as §1

[5] = test system: Leishmania donovani amastigotes (strain MHOM/ET/67/L82); assay: L. donovani axenic amastigote assay (resazurin); type: cell-based; conditions: for selectivity index (SI) with respect to Ldon: ratio of cytotoxic IC50 (L6) over IC50 against Ldon
Method: Leishmania donovani (axenic amastigote assay). […] Serial drug dilutions in duplicates were prepared covering a range from 30 to 0.041 µg/mL. […] The compounds used as positive controls in the various bioassays (see Table 1) were of commercial origin, with the exception of melarsoprol, which was a gift from WHO. Their purity (generally > 95%) was specified by the manufacturers.

[6] = test system: K1 strain of P. falciparum; assay: Antiplasmodial [3H]-hypoxanthine incorporation assay; type: cell-based, Plasmodium falciparum
Method: Plasmodium falciparum. Antiplasmodial activity was determined using the K1 strain of P. falciparum (resistant to chloroquine and pyrimethamine). A modification of the [3H]-hypoxanthine incorporation assay was used. Briefly, infected human red blood cells (final parasitaemia and haematocrit were 0.3% and 1.25%, respectively) in RPMI 1640 medium with 5% Albumax were exposed to serial drug dilutions in microtiter plates. After 48 hours of incubation at 37°C in a reduced oxygen atmosphere, 0.5 mCi 3H-hypoxanthine was added to each well. Cultures were incubated for a further 24 h before they were harvested onto glass-fiber filters and washed with distilled water. The radioactivity was counted using a BetaplateTM liquid scintillation counter (Wallac, Zurich, Switzerland). […] From the sigmoidal inhibition curves IC50 values were calculated. Assays were run in duplicate and repeated once.

[7] = Trypanosoma cruzi, TULAHUEN, L6, 96 h, Tulahuen C2C4 in L-6 cells, 96 h, mean of two independent measurements
[8] = Trypanosoma brucei, 72 h, bloodstream forms STIB 900, 72 h, read-out: IC50 T. brucei rhodes. (Tbr)
[9] = protozoa, especially Tbr, versus L6 mammalian cells
[10] = L6 cells (rat skeletal myoblasts)
[11] = Leishmania donovani, 72 h, pH 5.4, axenic amastigotes, pH 5.4, 72 h, mean of two independent measurements, read-out: IC50 L. donovani (Ldon)
[12] = Plasmodium falciparum, K1, K1 strain (resistant to chloroquine and pyrimethamine), mean of two independent measurements, read-out: IC50 P. falciparum (Pfc)
[13] = Trypanosoma cruzi, L6, Tulahuen C2C4 in L-6 cells, 96 h, mean of two independent measurements
[14] = Plasmodium falciparum, K1, read-out: IC50 P. falciparum (Pfc)
[15] = bloodstream forms STIB 900, 72 h, read-out: IC50 T. brucei rhodes. (Tbr)

| SMILES | IC50 [1, 7] | IC50 [2, 8] | IC50 at 72 h [4, 10] | IC50 [5, 11] | IC50 [6, 12] | other results |
| --- | --- | --- | --- | --- | --- | --- |
| C=C1C(=O)OC2CC3(C)CC(O)CC(=C)C3CC12 (stereo not shown) [Compound 26] | 24.8 µM | 7.8 µM | 0.948 µM | > 4 µM | – | antiparasitic activity compared with cytotoxicity (in words) [3, 9]: considerably more toxic against the mammalian cells than against the protozoa |
| C=C1C(=O)OC2CC(C)C3(C=CC(C)=O)OC3CC12 (stereo not shown) [Compound 19, 8-epixanthatin-1,5-epoxide] | 11.3 µM | 0.33 µM | 22.1 µM | 0.599 µM | 6.51 µM | selectivity index (SI) with respect to Tbr [2]: 67; antiparasitic activity compared with cytotoxicity (in words) [3, 9]: significantly higher levels of antiparasitic activity, especially against Tbr, than cytotoxicity; selectivity index (SI) with respect to Ldon [5]: 36 |
| C=C1C(=O)OC2CC3(C)CCCC(=C)C3CC12 (stereo not shown) [Compound 25] | 22.3 µM | 23.6 µM | – | > 14 µM | – | antiparasitic activity compared with cytotoxicity (in words) [3, 9]: considerably more toxic against the mammalian cells than against the protozoa; IC50 at 72 h [4]: 4.48 µM |
| C=C1C(=O)OC2CC(C)C3=CC(=O)OC3CC12 (stereo not shown) [Compound 24] | > 120 µM | 8.21 µM | 427 µM | 27.1 µM | > 20 µM | selectivity index (SI) with respect to Tbr [2]: 52; selectivity index (SI) with respect to Ldon [5]: 15 |
| C=C1C(=O)OC2C=C(C)CCC3OC3(COC(C)=O)CC(OC(=O)C3(C)OC3C)C12 (stereo not shown) [Compound 37] | 15.8 µM | 0.478 µM | 7.75 µM | 5.19 µM | 6.33 µM | – |
| C=C1C(=O)OC2CC(C)C(C=CC(C)=O)=CCC12 (stereo not shown) [Compound 18] | – | 2.92 µM | 30.2 µM | 17.6 µM | 7.83 µM | IC50 [1, 13]: 26.2 µM; antiparasitic activity compared with cytotoxicity (in words) [3]: significantly higher levels of antiparasitic activity, especially against Tbr, than cytotoxicity |
| C=C1C(=O)OC2C=C(C)C(OC(C)=O)CC3OC3(C)CC(OC(=O)C(C)=CC)C12 (stereo not shown) [Compound 39] | – | – | – | – | – | IC50 ([1]; Trypanosoma cruzi, TULAHUEN, L6, 96 h): 17.6 µM; IC50 [6, 14]: 8.07 µM; IC50 ([2]; Trypanosoma brucei, 72 h, read-out: IC50 T. brucei rhodes. (Tbr), bloodstream forms STIB 900, 72 h): 0.804 µM; IC50 at 72 h [4]: 10.1 µM; IC50 ([5]; Leishmania donovani, 72 h, pH 5.4, read-out: IC50 L. donovani (Ldon)): 30.1 µM |
| C=C1C(=O)OC2CC(C)C3C(O)CC(O)C3(C)CC12 (stereo not shown) [Compound 11] | 52.7 µM | 18.3 µM | 31.9 µM | 20.6 µM | 12.1 µM | – |
| C=C1C(=O)OC2CC3(C)CCCC(C)C3=CC12 (stereo not shown) [Compound 29] | 8.3 µM | 2.62 µM | – | 3.03 µM | 6.4 µM | IC50 at 72 h [4]: 5.99 µM |
| C=C1C(=O)OC2C1CCC1(C)C(O)CCC(=C)C21 (stereo not shown) [Compound 32] | – | – | – | – | – | IC50 ([1]; Tulahuen C2C4 in L-6 cells, 96 h, mean of two independent measurements): 26.2 µM; IC50 ([6]; K1 strain (resistant to chloroquine and pyrimethamine), mean of two independent measurements, read-out: IC50 P. falciparum (Pfc)): 13.6 µM; IC50 [2, 15]: 1.11 µM; IC50 ([3]; read-out: IC50 Cytotoxicity (L6), L6 rat skeletal myoblasts, 72 h, mean of two independent measurements): 25.6 µM; IC50 ([5]; axenic amastigotes, pH 5.4, 72 h, mean of two independent measurements, read-out: IC50 L. donovani (Ldon)): 7.34 µM |
| CC1CC2OC(=O)C34CC5(C)C=CC13C(CC24)O5 (stereo not shown) [Compound 23] | > 120 µM | 162 µM | – | 15.4 µM | > 20 µM | IC50 [4]: > 365 µM |
| C=C1C(=O)OC2CC3(C)C(CCC(C)=O)C3CC12 (stereo not shown) [Compound 20] | 39 µM | 15.9 µM | – | 14.6 µM | 12.7 µM | IC50 at 72 h [4]: 19.8 µM |
| CC1=CCCC2(C)OC2C2OC(=O)C(C)C2CC1 (stereo not shown) [Compound 35] | > 120 µM | 49 µM | 133 µM | 35.6 µM | > 20 µM | – |
| C=C1C(=O)OC2C=C(C)CCC3OC3(CO)CC(OC(=O)C3(C)OC3C)C12 (stereo not shown) [Compound 36] | 25.6 µM | 14.3 µM | – | 2.73 µM | 9.44 µM | IC50 [4]: 13.6 µM |
| C=C1C(=O)OC2CC(C)C3C=CC(=O)C3(C)C(OC(C)=O)C12 (stereo not shown) [Compound 2] | – | < 0.1 µM | – | – | – | IC50 [1, 13]: 0.538 µM; IC50 [6, 14]: 0.329 µM; IC50 [2, 15]: 0.063 µM; selectivity index (SI) with respect to Tbr [2]: 13; IC50 [4]: 0.809 µM; IC50 ([5]; Leishmania donovani, axenic amastigotes, pH 5.4, 72 h, mean of two independent measurements, read-out: IC50 L. donovani (Ldon)): 0.446 µM |
| CC(C)CC(=O)OC1C2C(CC(C)C3C=CC(=O)C31C)OC(=O)C2C (stereo not shown) [Compound 7] | 3.53 µM | 0.911 µM | 4.58 µM | 1.48 µM | 1.6 µM | – |
| C=C1C(=O)OC2CC(C)C(CCC(C)=O)=CCC12 (stereo not shown) [Compound 17] | > 120 µM | 62.1 µM | 179 µM | 23.8 µM | > 20 µM | – |
| C=C1C(=O)OC2CC(C)C3(O)C=C(C(C)=O)C4(CC3CC12)C(=O)OC1CC(C)C(C=CC(C)=O)=CCC14 (stereo not shown) [Compound 21] | 16.1 µM | 0.638 µM | 9.43 µM | 22 µM | 4.96 µM | – |
| C=C1C(=O)OC2CC3(C)CC(OC(C)=O)CC(=C)C3CC12 (stereo not shown) [Compound 27] | 24.3 µM | 10.7 µM | 8.91 µM | 11.8 µM | 9.21 µM | – |
